“Also recorded” adds a separate entry of the source.
How the values were obtained:
MOLM-13 cells = assay: In vitro splicing of endogenous transcripts (qRT-PCR, RT-PCR) in MOLM-13; format: cell-based
Procedure: For qRT-PCR analysis of relative total mRNA expression levels or splice isoform-specific expression analyses, cDNA was synthesized using 50 ng-1 […] of template RNA in 20 μL reaction volumes using the First-Strand SUPERSCRIPT™ III Reverse Transcriptase Supermix (Life Technologies) followed by incubation with RNase H according to the manufacturer's protocol and as described previously. All cDNA products were stored at −20° C. Splice isoform-specific primers for PTK2B-202 were designed to bind to unique exon junctions for this transcript, which lacks exon 24. All primers (Table 2) were diluted to 10 μM working dilutions in DNase/RNase-free water. qRT-PCR was performed in duplicate using cDNA (1 μL reverse transcription product per reaction) on an iCycler (Bio-Rad, Hercules, Calif.) using SYBR® GREENER™ Super Mix (Life Technologies) in 25-μL volume reactions containing 0.2 μM of each forward and reverse primer. Cycling conditions were as follows: 50° C. for 2 minutes, then 95° C. for 8 minutes and 30 seconds, followed by 40 cycles of 95° C. for 15 seconds and 60° C. for 60 seconds. Melting curve analysis was performed on each plate according to the manufacturer's instructions. For standard qRT-PCR, human HPRT mRNA transcript levels were used to normalize Ct values obtained for each gene, and relative expression levels were calculated using the 2^−ddCt method. To ensure validity of results, only Ct values <35 were used in gene expression analyses. All primer sets were tested in a no-template control (NTC) reaction containing only water instead of cDNA, and all gave Ct values >35 in NTC reactions.
For evaluation of in vitro splicing activity of endogenous transcripts in HEK293 or a sAML cell line, MOLM-13 (mycoplasma-free and cytogenetically-authenticated cell lines obtained from DMSZ), cells were plated in complete media (DMEM containing 10% FBS for HEK293 and RPMI containing 20% FBS for MOLM-13). The next day, FD-895, 17S-FD-895 or DMSO vehicle controls were added at doses ranging from 0.01-10 μM for 4 hrs of treatment. Cells were lysed in RLT buffer (Qiagen) and processed for RNA extraction and subsequent PCR analyses using primers specific for DNAJB1 or MCL1 (Table 2). For all experiments in cell line, cells obtained from the vendors were frozen down in bulk at low passage numbers and used within 20 passages to minimize risk of cell line misidentification or acquisition of additional chromosomal abnormalities.
For qRT-PCR analysis of relative total mRNA expression levels or splice isoform-specific expression analyses, cDNA was synthesized using 50 ng-1 […] reaction volumes using the First-Strand SUPERSCRIPT™ III Reverse Transcriptase Supermix (Life Technologies) followed by incubation with RNase H according to the manufacturer's protocol and as described previously (Abrahamsson et al., 2009; Crews et al., 2015). All cDNA products were stored at −20° C. Splice isoform-specific primers for PTK2B-202 were designed to bind to unique exon junctions for this transcript, which lacks exon 24. All primers (Supplemental Experimental Procedures Table) were diluted to 10 ∝M working dilutions in DNase/RNase-free water. qRT-PCR was performed in duplicate using cDNA (1 ∝Λ reverse transcription product per reaction) on an iCycler (Bio-Rad, Hercules, Calif.) using SYBR® GREENER™ Super Mix (Life Technologies) in 25-∝A volume reactions containing 0.2 ∝M of each forward and reverse primer. Cycling conditions were as follows: 50° C. for 2 minutes, then 95° C. for 8 minutes and 30 seconds, followed by 40 cycles of 95° C. for 15 seconds and 60° C. for 60 seconds. Melting curve analysis was performed on each plate according to the manufacturer's instructions. For standard qRT-PCR, human HPRT mRNA transcript levels were used to normalize Ct values obtained for each gene, and relative expression levels were calculated using the 2-ddCt method. To ensure validity of results, only Ct values <35 were used in gene expression analyses. […]

HEK293 cells = assay: In vitro splicing of endogenous transcripts (qRT-PCR, RT-PCR) in HEK293; format: cell-based
Procedure: (§1) For qRT-PCR analysis of relative total mRNA expression levels or splice isoform-specific expression analyses, cDNA was synthesized using 50 ng-1 pg of template RNA in 20 μL reaction volumes using the First-Strand SUPERSCRIPT™ III Reverse Transcriptase Supermix (Life Technologies) followed by incubation with RNase H according to the manufacturer's protocol and as described previously. All cDNA products were stored at −20° C. Splice isoform-specific primers for PTK2B-202 were designed to bind to unique exon junctions for this transcript, which lacks exon 24. […] For standard qRT-PCR, human HPRT mRNA transcript levels were used to normalize Ct values obtained for each gene, and relative expression levels were calculated using the 2^−ddCt method. […]
as §1, with “[…]” for “pg”, “[…]” for “μL”, “previously (Abrahamsson et al., 2009; Crews et al., 2015).” for “previously. All cDNA products were stored at −20° C. Splice isoform-specific primers for PTK2B-202 were designed to bind to unique exon junctions for this transcript, which lacks exon 24.”, “2-ddCt” for “2^−ddCt”

## CC[C@H](OC)[C@@H](C)[C@H]1O[C@@H]1[C@@H](O)[C@H](C)/C=C/C=C(\C)[C@H]1OC(=O)C[C@H](O)CC[C@@](C)(O)[C@@H](OC(C)=O)/C=C/[C@@H]1C (stereo in doubt) [Formula 17S-FD-895, 17S-FD-895]
MOLM-13 cells; MOLM-13, 1 μM, 30 mins-24 hrs, qRT-PCR, 95% C.I.
  EC50 of the 1 μM treatment condition (time course of DNAJB1 intron 2 retention): 3.2 to 6.5 h
MOLM-13 cells; MOLM-13, 0.01-10 μM, 4 hrs
  MCL1-S expression (qRT-PCR): low doses of 17S-FD-895 increased MCL1-S expression, this effect was reversed at high doses
MOLM-13 cells; MOLM-13, short-term treatment
  PTK2B-202 expression (isoform-specific qRT-PCR): reduced expression
MOLM-13 cells; MOLM-13 sAML cells
  time at which the increase in DNAJB1 intron 2 levels occurred after initiation of treatment: 30 min
MOLM-13 cells; MOLM-13 sAML cells, 0.01-10 μM 4 hrs, time course 30 mins-24 hrs
  DNAJB1 intron 2 retention: rapid and dose-dependent increase; also recorded: time- and dose-dependent increase
MOLM-13 cells; MOLM-13 versus HEK293, 4 hrs
  MCL1 splicing pattern (RT-PCR, primers flanking exon 2): triggered MCL1 exon 2 skipping; also recorded: increased intron retention predominantly in sAML cells (MOLM-13)
HEK293 cells; HEK293, 0.01-10 μM, 4 hrs
  MCL1-S expression (qRT-PCR): low doses of 17S-FD-895 increased MCL1-S expression, this effect was reversed at high doses
HEK293 cells; HEK293 cells, compared with MOLM-13
  DNAJB1 intron 2 levels: to a lesser extent

Reference: patent US10675267B2, “Methods for detection and eradication of myeloid leukemia stem cells” (priority 2015, dated 2020)
